One test concerns RNase B. In words: BLI kinetics of FimH fimbriae binding to RNase B. Also noted: species or system bovine. The following applies: RNAseB binding. Here is the method:
To test the kinetics of fimbriae binding to RNase B, streptavidin-coated biosensors (SA, FortéBio) were first allowed to bind biotinylated RNase B (applied at a concentration of 10-20 μg/ml in 0.2% BSA HBS). […] The dissociation of the fimbriae-RNase B complexes was conducted in 0.2% BSA HBS. The binding sensorgrams after single reference subtraction (biosensors with 0.2% BSA HBS, or Fab824, respectively) were used for global fitting. […] The standard error that was given in the table for the kinetic parameters relates to the “fit” of the data to the model.
(Biolayer interferometry detects binding as a change in optical thickness at a sensor tip.)

Another test relates to guinea pig RBC. The experiment in a line: Red blood cell (RBC) aggregation by bacteria under rocking (Example 1). The format is cell-based. Here is the method: Guinea pig RBC (Colorado Serum Company) were washed with PBS three times. 50 μl of RBC suspension (1%) was mixed 1:1 with 50 μl of 4×10^8 of type 1 fimbriated bacteria in a glass plate in the absence and presence of 1% αmm and continuously mixed at high speed on rotator (Model 260300F, Fisher Scientific) for extended period of time. The aggregation of RBC was visually scored and the time at which noticeable aggregation was observed and reported in minutes (min). In some experiments, bacterial cells were first pre-incubated for 5 min with 67 μg/ml of mAbs in the glass plate and then mixed with RBC suspension in the absence and presence of 1% αmm.

In a further test the test system is HRP. The format is binding. Particulars: fimbriae pre-treated with mAb824. As for the experimental part:
The assays were performed as described previously. In brief. 96-well microtiter plates were coated overnight with purified type 1 fimbriae in 0.02 M NaHCO3 buffer at pH 9.6 (0.1 mg/ml), followed by washes and quenching with 0.2% BSA in PBS. The immobilized fimbriae were incubated with HRP at a concentration of 50 μg/ml for 1 h in the absence or presence of 1% mannose. After extensive washing with PBS, bound horseradish peroxidase was detected by adding 100 μl of TMB substrate (Kirkegaard and Perry Laboratories, KPL) and absorbance was read at 650 nm. […] All incubations, unless stated otherwise, were performed at 37 C. The colorimetric reaction was developed in the presence of TMB substrate at RT and absorbance was read at 650 nm.

In a further test the test system is mAb21. In words: mAb21 binding time course to immobilized fimbriae and three-state model. The following applies: for mAb21 binding over time course: absence of mannose, 10 sec to 2 hours; for keq ± SEM: Keq=kact/kdeact; for time to 50% of the maximal optical density (OD50) of mAb21 binding: presence of soluble mannose. Here is the method:
The assays were performed as described previously. In brief. 96-well microtiter plates were coated overnight with purified type 1 fimbriae in 0.02 M NaHCO3 buffer at pH 9.6 (0.1 mg/ml), followed by washes and quenching with 0.2% BSA in PBS. The immobilized fimbriae were incubated with HRP at a concentration of 50 μg/ml for 1 h in the absence or presence of 1% mannose. After extensive washing with PBS, bound horseradish peroxidase was detected by adding 100 μl of TMB substrate (Kirkegaard and Perry Laboratories, KPL) and absorbance was read at 650 nm. […] After the incubation for indicated time, the plates were washed extensively with PBS and FimH-mAb21 complexes were detected using HRP-conjugated goat anti-mouse antibody (Sigma-Aldrich, diluted 1:3000). All incubations, unless stated otherwise, were performed at 37 C. The colorimetric reaction was developed in the presence of TMB substrate at RT and absorbance was read at 650 nm.
For our modeling, we made the following definitions and assumptions.
To estimate kmAb21, we assumed that LD^A27V-PD^FocH is essentially all in HAS in the presence of mannose, so we fit high time-resolution data with a saturable binding model,
We then estimated kact and kdeact for all four variants in the presence and absence of mannose by fitting this model to the data by minimizing the least square error between the model and data points divided by the value of the data. Parameters were estimated independently for the data from each day the experiment was performed, to provide multiple values of each constant.
There were two limitations to using this model to estimate these parameters. […] Second, in two additional conditions—LD^wt-PD^wt in the presence of mannose and LD^A27V-PD^wt in the absence of mannose, a wide range of values of the rate constants produced the same fitting error. To identify a lower bound for the rate constants, we fit kact while holding kdeact constant over a wide range of values and observed that the error was high for low rates but reached a plateau at higher rates. We identified the lowest kdeact and corresponding kact values at which the error was no more than 10% that of all higher values. Throughout this plateau, Keq=kact/kdeact remained within a tight and reproducible range, so was well-determined by the model. For these two conditions, the lower bounds for the two kinetic constants and the upper and lower bound for the equilibrium constants are reported in Table 8.
For the remaining five conditions, the rate constants as well as equilibrium constants were reproducible for a wide range of initial guesses, and between replicate experiments, so we consider these to be reliable. […] These values were consistent with the estimated bounds and are also reported in FIGS. 20C and 20D for illustration.

Test [1] deals with guinea pig red blood cells (RBC). The experiment in a line: RBC agglutination (rosette) under static conditions. The format is cell-based. Here is the method: (§1) Guinea pig RBC (Colorado Serum Company) were washed with PBS three times. 50 μl of RBC suspension (1%) was mixed 1:1 with 50 μl of 4×10^8 cfu of type 1 fimbriated bacteria in a glass plate in the absence and presence of 1% αmm and continuously mixed by gently rocking at ˜2-3 s^−1. The aggregation of RBC was visually scored and the time at which noticeable aggregation was observed and reported in minutes (min). In some experiments, bacterial cells were first pre-incubated for 5 min with 67 μg/ml of mAbs in the glass plate and then mixed with RBC suspension in the absence and presence of 1% αmm. RBC rosette-formation assay under was performed by mixing equal amounts of serially diluted bacterial sus-pensions (starting from OD540 nm 1.0) and a 1% suspension of RBC in U-bottom microtiter plate wells as described previously.
(§2) Finally, we compared cell binding ability of the FimH-expressing bacteria under static and dynamic conditions by using two classical set-ups with agglutination of guinea pig red blood cells (RBC)—the model cells for type 1 flmbriae-mediated bacterial adhesion. In the static assays, different dilutions of bacteria were combined with a suspension of RBC in U-shaped microtiter wells and allowed to settle without shaking. […]

The test system is the same in test [2]. The experiment in a line: RBC aggregation under dynamic (rocking) conditions. In kind it is cell-based. As for the experimental part:
as §1, §2

Test [3] concerns the target T1, FimH^wt (FimH adhesin of E. coli K12) (Escherichia coli K12, UniProt P08191 22-300).
T1 construct: also called FimH^K12; LD^A27V-PD^wt
In words: BLI; fimbriae on biotinylated RNase B on streptavidin probe; conformational change model; PBS.
Description: To test the kinetics of fimbriae binding to RNase B, streptavidin-coated biosensors (SA, FortéBio) were first allowed to bind biotinylated RNase B (applied at a concentration of 10-20 μg/ml in 0.2% BSA HBS). […] The dissociation of the fimbriae-RNase B complexes was conducted in 0.2% BSA HBS. […] The standard error that was given in the table for the kinetic parameters relates to the “fit” of the data to the model.

The test system of a further test is asialofetuin. In words: FmIH-dependent bacterial adhesion to asialofetuin. The format is cell-based. Here is the method: (§3) FmIH-dependent bacterial adhesion was analyzed as described previously with minor modifications (47). Briefly, Immulon 4HBX microtiter plates (Thermo Electron Corp.) were coated with 20 μg/mL of asialofetuin (Sigma-Aldrich) and plates were quenched with 0.2% BSA in PBS. Bacterial suspensions in PBS (OD540=2) were added to each well in a volume of 100 μl and plates were spun for 2 min at 750×g. After extensive washing, bound bacteria were stained with 0.1% (vol/vol) crystal violet for 20 min at room temperature and were washed several times with water. Then 100 μl of 50% (vol/vol) ethanol was added to each well, and the absorbance at a wavelength of 600 nm was measured. For inhibition, bacterial binding was tested in the presence of 1% galactose (Sigma).
as §3, with “[Kisiela D I, et al. (2015) Inhibition and Reversal of Microbial Attachment by an Antibody with Parasteric Activity against the FimH Adhesin of Uropathogenic E. coli. PLoS Pathog 11: e1004857].” for “(47).”, “(ThermoFisher Scientific)” for “(Thermo Electron Corp.)”

Where [4] appears, read: full-length FmIH in type 1 fimbrial background.

Residue numbers refer to the chain shown, from its start. Numbers in names are those of the source.

In the case of “FimH^wt: 'wild-type' FimH adhesin from E. coli K12; b242: K12 and J96 express LD^A27V-PD^wt”, in the test on RNase B, the “koff higher relative to FimH^FocH” value is given as around 1000 fold, the “kon higher relative to FimH^FocH” value is listed as around 50 fold and the “lower affinity relative to FimH^FocH” value is listed as around 10 fold. The “Time upon which noticeable aggregation of RBC was observed” value in the test with guinea pig RBC (mAb824 pre-incubation (67 μg/ml)) is recorded as above 60 min. Moreover, the “Time upon which noticeable aggregation of RBC was observed” value with guinea pig RBC (αmm (1%)) is reported as above 60 min. In the test with HRP, the “binding of HRP in complex with mAb824” value is on record as “remained very weak”. Moreover, in the test on mAb21, the “mAb21 binding over time course” value was “only marginal at the later time points” and the “time to 50% of the maximal optical density (OD50) of mAb21 binding” value is recorded as around 3 min. Moreover, in the test on mAb21 (mannose absence), the “kact ± SEM” value is >8.8 × 10^−5, the “kdeact ± SEM” value is >2.3 × 10^0 and the “keq ± SEM” value is on record as 1.5 × 10^−3 to 4.0 × 10^−3. Also, in the test with mAb21 (mannose presence), the “kact ± SEM” value is reported as 3.4 × 10^−3 ± 0.4 × 10^−3, the “kdeact ± SEM” value is reported as 8.7 × 10^−3 ± 1.7 × 10^−2 and the “keq ± SEM” value is listed as 3.9 × 10^−1 ± 0.9 × 10^−1. Also, the “RBC binding / rosette formation” value in test [1] is “only at a relatively high concentration (low titer) of bacteria”. Besides, in test [2], the “Minimal IC of mannose” value is “.1%”.
On to “LD^wt-PD^wt: naturally-occurring FimH from fecal E. coli strain F18, evolutionary wild-type”, for which the “binding of HRP in complex with mAb824” value in the test with HRP is recorded as “remained very weak”. Also, in the test on mAb21, the “mAb21 binding over time course” value is recorded as “No reliably measurable binding” and the “time to 50% of the maximal optical density (OD50) of mAb21 binding” value was around 30 min. Moreover, in the test with mAb21 (mannose presence), the “kact ± SEM” value is given as >2.0 × 10^−4, the “kdeact ± SEM” value is listed as >8.5 × 10^−2 and the “keq ± SEM” value is listed as 1.7 × 10^−2 to 2.3 × 10^−2. Further, the “mAb21 binding to fimbriae” value in the test on mAb21 (presence of 1% alpha-methyl-mannoside, 1 h) is “somewhat lower”. Also, the “RBC binding / rosette formation” value in test [1] is listed as “could not bind RBC at any concentration”. For the same molecule, in test [2], the “Minimal IC of mannose” value is recorded as “.1%”.

B1: ribonuclease B (RNase B), bovine (enzyme, UniProt P61823 27-150, looked up)
chain: KETAAAKFERQHMDSSTSAASSSNYCNQMMKSRNLTKDRCKPVNTFVHESLADVQAVCSQKNVACKNGQTNCYQSYSTMSITDCRETGSSKYPNCAYKTTQANKHIIVACEGNPYVPVHFDASV
modifications: N-linked high-mannose (Man5) oligosaccharides; biotinylated with Sulfo-NHS-LC-Biotin
What is called Kd is the constant that tells how readily two partners part at equilibrium. A lower Kd goes with tighter binding. A word on the koff: it is a measure of how fast the partners let go of each other. Read a high koff as fast dissociation. As usually defined, the kon is a measure of how fast the partners come together. Read a low kon as slow association. In test [3], B1 had a Kd of 149 nM, an off-rate (koff) of 0.256 s⁻¹ and a kon of 1.1e+06 M⁻¹ s⁻¹.

B2: V33E (protein, listed as Escherichia coli)
chain: FSCNVDGGSSIGAGTTSVYVNLDPVIQPGQNLEVDLSQHISCWNDYGGWYDTDHINLVQGSAFAGSLQSYKGSLYWNNVTYPFPLTTNTNVLDIGDKTPMPLPLKLYITPVGAAGGVVIKAGEVIARIHMYKIATLGSGNPRNFTWNIISNNSVVMPTGG
As to B2, the “bacterial binding to asialofetuin” value in the test on asialofetuin (setting [4]) is recorded as “activation of the binding phenotype”.

B3: L32E (protein, listed as Escherichia coli)
chain: B2 chain with L32E, E33V
Consider B3, for which the “bacterial binding to asialofetuin” value was “did not increase binding” with asialofetuin (setting [4]) and “decreased the binding properties of FmIH^FocH” in the test with asialofetuin (mutation in FmIH^FocH).

B4: F63E (protein, listed as Escherichia coli)
chain: B2 chain with E33V, F63E
Turning to B4, in the test on asialofetuin (setting [4]), the “bacterial binding to asialofetuin” value is “activation of the binding phenotype”.

B5: FmIH^FocH: wild-type FmIH lectin domain fused to the heterogeneous FocH-type pilin domain (protein)
chain: FSCNVDGGSSIGAGTTSVYVNLDPVIQPGQNLVVDLSQHISCWNDYGGWYDTDHINLVQGSAFAGSLQSYKGSLYWNNVTYPFPLTTNTNVLDIGDKTPMPLPLKLYITPVGAAGGVVIKAGEVIARIHMYKIATLGSGNPRNFTWNIISNNSVVMPTGGCDVSARDVTVTLPDYPGSVPIPLTVRCDQTQSVSYTLSGSVADAGNSIFTNTASFSPAQGVGVQLTRNGTIIPANNTVSLGAVGTSAVSLGLTANYARTGGQVTAGNVQSIIGVTFVYQ
Take B5: the “bacterial binding to asialofetuin” value in the test with asialofetuin (setting [4]) was “increased binding relative to the wild-type adhesin”.

The values above are taken from patent US20240165214A1, “COMPOSITIONS AND METHODS FOR STABILIZATION OF ALLOSTERIC PROTEINS” (priority 2021, published 2024).
